US20120077858A1, “COMPOUNDS ACT AT MULTIPLE PROSTAGLANDIN RECEPTORS GIVING A GENERAL ANTI-INFLAMMATORY RESPONSE” (ALLERGAN, INC., priority 2010, published 2012)
Values joined by “and” are separate entries in the source; they are usually repeats but may differ in a detail not shown here. Equal entries are not always repeated. Where two headings read alike, the source gives them in different places.

Assays:
Type in all cases: cell-based
[1] = target: T1, human prostanoid EP3 receptor (Homo sapiens, UniProt P43115); test: FLIPR Ca2+ signaling antagonist assay, EP3 receptor stable cell line; conditions: chimeric Gqi, vs standard agonist PGE2
T1 construct: expressed in transfected cells
T1 sequence (P43115 1-390): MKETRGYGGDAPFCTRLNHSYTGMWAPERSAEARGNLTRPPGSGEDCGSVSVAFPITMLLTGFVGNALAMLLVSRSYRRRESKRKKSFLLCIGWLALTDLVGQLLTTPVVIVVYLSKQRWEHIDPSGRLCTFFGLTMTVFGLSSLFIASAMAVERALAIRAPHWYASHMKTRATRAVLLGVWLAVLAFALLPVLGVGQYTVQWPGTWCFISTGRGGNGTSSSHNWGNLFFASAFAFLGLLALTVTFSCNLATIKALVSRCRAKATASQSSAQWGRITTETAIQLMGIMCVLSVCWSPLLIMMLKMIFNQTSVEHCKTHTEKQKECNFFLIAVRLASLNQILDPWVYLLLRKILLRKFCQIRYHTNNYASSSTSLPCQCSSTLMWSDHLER
Method: (§1) The above compounds were tested for PG antagonist activity as follows using human recombinant prostanoid receptor (DP1, EP1-4, FP, IP and TP) stable cell lines:
(§2) In order to measure the response of Gs and Gi coupled prostanoid receptors as a Ca^2+ signal, chimeric G protein cDNAs were used. Stable cell lines over-expressing human prostanoid DP1, EP1-4, FP, IP, and TP receptors were established as follows:
(§3) Briefly, human prostanoid DP1, EP2, and EP4 receptor cDNAs were co-transfected with chimeric Gqs cDNA containing a haemagglutanin (HA) epitope; human prostanoid EP3 receptors were co-transfected with chimeric Gqi-HA; human EP1, FP, IP, and TP receptor cDNAs were expressed with no exogenous G-proteins. Gqs and Gqi chimeric cDNAs (Molecular Devices, Sunnyvale, Calif., U.S.A.), as well as cDNAs of prostanoid receptors, were cloned into a pCEP4 vector with a hygromycin B selection marker. Transfection into HEK-293 EBNA (Epstein-Barr virus nuclear antigen) cells was achieved by the FuGENE 6 transfection Reagent (Roche Applied Science, Indianapolis, Ind., USA). Stable transfectants were selected according to hygromycin resistance. Because Gqs and Gqi contained an HA epitope, G-protein expression was detected by Western blotting analysis using anti-mouse HA monoclonal antibody and horseradish peroxidase (HRP)-conjugated secondary antibody, while functional expression of prostanoid receptors was detected by FLIPR screening. These stable cell lines were validated using previously published antagonists at 10 μM against serial dilutions of standard agonists by FLIPR functional assays for Ca^2+ Signaling (as described below).
(§4) Ca^2+ signaling studies were performed using a FLIPR TETRA system (Molecular Devices, Sunnyvale, Calif., USA) in the 384-format. This is a high-throughput instrument for cell-based assays to monitor Ca^2+ signaling associated with GPCRs and ion channels. Cells were seeded at a density of 5×10^4 cells/well in BioCoat poly-D-lysine coated, black wall, clear bottom 384-well plates (BD Biosciences, Franklin lakes, NJ, USA) and allowed to attach overnight in an incubator at 37° C. […]
(§5) After 4.5 minutes, a 7-point serial dilution of the standard agonist for the corresponding receptor, in a 25 μl volume was injected at the final concentrations from 10^−11M to 10^−5M 10-fold serial dilution increments for cells expressing human recombinant DP1, EP1, EP2, EP3, EP4, FP, and IP receptors. […] Cells were excited with LED (light emitting diode) excitation at 470-495 nm and emission was measured through an emission filter at 515-575 nm. Assay plates were read for 3.5 minutes using the FLIPR^TETRA. The peak increase in fluorescence intensity was recorded for each well. […]

[2] = target: T2, human prostanoid EP1 receptor (Homo sapiens, UniProt P34995); test: FLIPR Ca2+ signaling antagonist assay, EP1 receptor stable cell line; conditions: vs standard agonist PGE2
T2 construct: expressed in transfected cells
T2 sequence (P34995 1-402): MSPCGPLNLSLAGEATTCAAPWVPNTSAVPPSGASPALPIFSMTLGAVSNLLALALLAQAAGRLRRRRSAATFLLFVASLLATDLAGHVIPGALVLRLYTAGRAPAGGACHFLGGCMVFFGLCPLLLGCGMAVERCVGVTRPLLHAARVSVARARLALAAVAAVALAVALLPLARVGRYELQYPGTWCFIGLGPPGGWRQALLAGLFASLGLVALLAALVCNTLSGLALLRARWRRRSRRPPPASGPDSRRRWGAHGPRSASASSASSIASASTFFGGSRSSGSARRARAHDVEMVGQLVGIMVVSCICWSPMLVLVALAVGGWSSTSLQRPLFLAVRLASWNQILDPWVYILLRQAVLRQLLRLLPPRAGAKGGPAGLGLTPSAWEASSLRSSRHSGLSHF
Method: as §1, §2, §3, §4, §5

[3] = target: T3, human prostanoid EP2 receptor (Homo sapiens, UniProt P43116); test: FLIPR Ca2+ signaling antagonist assay, EP2 receptor stable cell line; conditions: chimeric Gqs, vs standard agonist PGE2
T3 construct: expressed in transfected cells
T3 sequence (P43116 whole entry): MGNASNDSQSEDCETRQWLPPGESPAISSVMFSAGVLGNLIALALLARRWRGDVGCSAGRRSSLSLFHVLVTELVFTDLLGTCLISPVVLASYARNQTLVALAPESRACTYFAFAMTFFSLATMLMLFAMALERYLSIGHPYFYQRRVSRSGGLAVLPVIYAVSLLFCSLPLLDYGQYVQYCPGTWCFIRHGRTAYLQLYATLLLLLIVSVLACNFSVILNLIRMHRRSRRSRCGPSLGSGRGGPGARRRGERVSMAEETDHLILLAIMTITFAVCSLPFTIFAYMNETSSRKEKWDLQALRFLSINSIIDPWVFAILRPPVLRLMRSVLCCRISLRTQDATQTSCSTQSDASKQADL
Method: as §1, §2, §3, §4, §5

[4] = target: T4, human prostanoid IP receptor (Homo sapiens, UniProt P43119); test: FLIPR Ca2+ signaling antagonist assay, IP receptor stable cell line; conditions: HEK-293 EBNA stable cells, vs standard agonist Cicaprost
T4 construct: expressed in transfected cells
T4 sequence (P43119 whole entry): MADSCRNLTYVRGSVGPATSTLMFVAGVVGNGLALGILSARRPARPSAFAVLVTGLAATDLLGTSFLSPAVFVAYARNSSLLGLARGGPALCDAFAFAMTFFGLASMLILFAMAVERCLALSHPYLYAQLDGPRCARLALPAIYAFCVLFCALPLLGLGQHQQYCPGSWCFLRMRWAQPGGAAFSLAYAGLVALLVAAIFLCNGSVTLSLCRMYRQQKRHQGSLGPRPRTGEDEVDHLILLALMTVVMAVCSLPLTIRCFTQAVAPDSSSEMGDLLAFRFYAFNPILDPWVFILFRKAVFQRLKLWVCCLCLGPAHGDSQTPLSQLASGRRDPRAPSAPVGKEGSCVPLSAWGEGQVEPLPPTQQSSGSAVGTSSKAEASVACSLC
Method: as §1, §2, §3, §4, §5

[5] = target: T5, human prostanoid EP4 receptor (Homo sapiens, UniProt P35408); test: FLIPR Ca2+ signaling antagonist assay, EP4 receptor stable cell line; conditions: chimeric Gqs, vs standard agonist PGE2
T5 construct: expressed in transfected cells
T5 sequence (P35408 whole entry): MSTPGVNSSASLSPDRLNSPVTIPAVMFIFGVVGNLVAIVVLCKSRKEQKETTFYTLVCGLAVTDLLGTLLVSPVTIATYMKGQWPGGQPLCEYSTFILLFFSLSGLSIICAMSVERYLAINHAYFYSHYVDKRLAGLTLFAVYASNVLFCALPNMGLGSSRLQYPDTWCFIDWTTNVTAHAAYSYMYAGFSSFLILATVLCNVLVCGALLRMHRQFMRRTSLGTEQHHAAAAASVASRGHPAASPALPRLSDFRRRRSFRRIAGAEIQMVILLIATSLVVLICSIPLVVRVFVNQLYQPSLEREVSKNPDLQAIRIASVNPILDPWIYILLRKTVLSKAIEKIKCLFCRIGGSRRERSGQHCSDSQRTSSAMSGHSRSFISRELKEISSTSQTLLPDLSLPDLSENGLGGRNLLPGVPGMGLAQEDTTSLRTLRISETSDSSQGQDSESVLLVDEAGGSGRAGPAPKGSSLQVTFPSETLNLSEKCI
Method: as §1, §2, §3, §4, §5

[6] = target: T6, human prostanoid FP receptor (Homo sapiens, UniProt P43088); test: FLIPR Ca2+ signaling antagonist assay, FP receptor stable cell line; conditions: HEK-293 EBNA stable cells, vs standard agonist 17-phenyl-PGF2α
T6 construct: expressed in transfected cells
T6 sequence (P43088 whole entry): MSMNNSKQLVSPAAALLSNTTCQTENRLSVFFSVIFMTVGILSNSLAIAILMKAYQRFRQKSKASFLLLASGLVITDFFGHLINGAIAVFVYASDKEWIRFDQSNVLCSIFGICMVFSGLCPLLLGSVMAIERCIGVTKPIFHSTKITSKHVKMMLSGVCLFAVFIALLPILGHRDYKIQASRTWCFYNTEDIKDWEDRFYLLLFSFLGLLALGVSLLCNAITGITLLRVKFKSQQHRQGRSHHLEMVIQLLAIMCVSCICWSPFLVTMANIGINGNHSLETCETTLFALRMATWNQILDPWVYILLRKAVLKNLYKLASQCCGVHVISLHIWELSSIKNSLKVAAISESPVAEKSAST
Method: as §1, §2, §3, §4, §5

[7] = target: T7, human prostanoid TP receptor (Homo sapiens, UniProt P21731); test: FLIPR Ca2+ signaling antagonist assay, TP receptor stable cell line
T7 construct: expressed in transfected cells
T7 sequence (P21731 1-343): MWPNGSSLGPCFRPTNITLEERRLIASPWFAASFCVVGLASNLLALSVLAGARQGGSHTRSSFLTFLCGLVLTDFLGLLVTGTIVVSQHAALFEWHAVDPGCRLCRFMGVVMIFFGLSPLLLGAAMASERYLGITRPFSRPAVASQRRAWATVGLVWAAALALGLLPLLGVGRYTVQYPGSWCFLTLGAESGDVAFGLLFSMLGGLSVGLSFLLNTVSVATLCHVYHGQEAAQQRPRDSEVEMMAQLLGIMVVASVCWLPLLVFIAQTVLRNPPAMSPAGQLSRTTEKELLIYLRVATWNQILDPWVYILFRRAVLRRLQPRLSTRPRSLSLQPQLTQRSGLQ
Method: as §1, §2
as §3, with “These stable cell lines were validated using previously published antagonists at 10 μM against serial dilutions of standard agonists by FLIPR functional assays for Ca^2+ Signaling (as described below).” left out
as §5

[8] = target: T8, human prostanoid DP1 receptor (Homo sapiens, UniProt Q13258); test: FLIPR Ca2+ signaling antagonist assay, DP1 receptor stable cell line
T8 construct: expressed in transfected cells
T8 sequence (Q13258 1-359): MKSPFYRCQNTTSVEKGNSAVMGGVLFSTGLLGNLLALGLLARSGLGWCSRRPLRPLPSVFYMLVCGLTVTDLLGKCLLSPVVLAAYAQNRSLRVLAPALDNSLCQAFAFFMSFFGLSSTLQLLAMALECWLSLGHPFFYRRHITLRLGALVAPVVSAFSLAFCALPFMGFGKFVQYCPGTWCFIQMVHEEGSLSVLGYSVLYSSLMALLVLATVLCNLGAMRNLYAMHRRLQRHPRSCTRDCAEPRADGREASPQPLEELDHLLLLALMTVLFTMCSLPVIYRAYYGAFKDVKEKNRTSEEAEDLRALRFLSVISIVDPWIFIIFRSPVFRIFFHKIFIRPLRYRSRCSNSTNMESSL
Method: as §1, §2
Briefly, human prostanoid DP1, EP2, and EP4 receptor cDNAs were co-transfected with chimeric Gqs cDNA containing a haemagglutanin (HA) epitope; human prostanoid EP3 receptors were co-transfected with chimeric Gqi-HA; human EP1, FP, IP, and TP receptor cDNAs were expressed with no exogenous G-proteins. […] Because Gqs and Gqi contained an HA epitope, G-protein expression was detected by Western blotting analysis using anti-mouse HA monoclonal antibody and horseradish peroxidase (HRP)-conjugated secondary antibody, while functional expression of prostanoid receptors was detected by FLIPR screening. […]
After 4.5 minutes, a 7-point serial dilution of the standard agonist for the corresponding receptor, in a 25 μl volume was injected at the final concentrations from 10^−11M to 10^−5M 10-fold serial dilution increments for cells expressing human recombinant DP1, EP1, EP2, EP3, EP4, FP, and IP receptors. […] Assay plates were read for 3.5 minutes using the FLIPR^TETRA. […]

[9] = HEK-293 EBNA stable cells, read-out: EC50 (nM) on Prostanoid Receptor Functional Activity Measured by FLIPR, (FLIPR) Kb (nM): EP3
[10] = HEK-293 EBNA stable cells, read-out: EC50 (nM) on Prostanoid Receptor Functional Activity Measured by FLIPR, (FLIPR) Kb (nM): EP1
[11] = HEK-293 EBNA stable cells, read-out: EC50 (nM) on Prostanoid Receptor Functional Activity Measured by FLIPR, (FLIPR) Kb (nM): EP2
[12] = read-out: EC50 (nM) on Prostanoid Receptor Functional Activity Measured by FLIPR
[13] = HEK-293 EBNA stable cells, read-out: EC50 (nM) on Prostanoid Receptor Functional Activity Measured by FLIPR, (FLIPR) Kb (nM): EP4
[14] = HEK-293 EBNA stable cells, vs standard agonist U-46619, read-out: EC50 (nM) on Prostanoid Receptor Functional Activity Measured by FLIPR, (FLIPR) Kb (nM): TP
[15] = EC50 (nM) on Prostanoid Receptor Functional Activity Measured by FLIPR

Kb [1, 9]	Kb [2, 10]	Kb [3, 11]	Kb [4, 12]	Kb [5, 13]	Kb [6, 12]	Kb [7, 14]	Kb ([8]; HEK-293 EBNA stable cells, chimeric Gqs, vs standard agonist BW 245C, read-out: EC50 (nM) on Prostanoid Receptor Functional Activity Measured by FLIPR, (FLIPR) Kb (nM): DP)	Compound	Kb ([1]; EC50 (nM) on Prostanoid Receptor Functional Activity Measured by FLIPR, (FLIPR) Kb (nM): EP3, HEK-293 EBNA stable cells)	Kb ([2]; EC50 (nM) on Prostanoid Receptor Functional Activity Measured by FLIPR, (FLIPR) Kb (nM): EP1, HEK-293 EBNA stable cells)	Kb [7]	Kb ([3]; EC50 (nM) on Prostanoid Receptor Functional Activity Measured by FLIPR, (FLIPR) Kb (nM): EP2, HEK-293 EBNA stable cells)	Kb [4, 15]	Kb [8]	Kb ([5]; EC50 (nM) on Prostanoid Receptor Functional Activity Measured by FLIPR, (FLIPR) Kb (nM): EP4, HEK-293 EBNA stable cells)	Kb [6, 15]
100 nM	70 nM	5500 nM	9500 nM	37 nM	460 nM	–	–	O=C(CCc1ccc(Cl)cc1CN1CCC[C@H]1c1nc(C(=O)NCCCCC2CCCCC2)co1)NS(=O)(=O)C(F)(F)F [Example 12b, (S)—N-(4-cyclohexylbutyl)-2-(1-(5-chloro-2-(3-oxo-3-(trifluoromethylsulfonamido)propyl)benzyl)pyrrolidin-2-yl)oxazole-4-carboxamide]	–	–	–	–	–	–	–	–
82 nM and 47 nM	47 nM and 20 nM	6400 nM and 830 nM	550 nM and 860 nM	38 nM and 10 nM	350 nM and 270 nM	< 1 nM	–	O=C(CCc1ccc(F)cc1CN1CCC[C@H]1c1nc(C(=O)NCCCCC2CCCCC2)co1)NS(=O)(=O)C(F)(F)F [Example 12a]	–	–	–	–	–	–	–	–
–	–	–	–	–	–	–	–	CCCCCCCCNC(=O)c1coc(C2CCCN2Cc2cc(F)ccc2CCC(=O)NS(=O)(=O)C(F)(F)F)n1 (centres unmarked) [Example 12e, 2-{1-[5-fluoro-2-(3-oxo-3-{[(trifluoromethyl)sulfonyl]amino}propyl)benzyl]pyrrolidin-2-yl}-N-octyl-1,3-oxazole-4-carboxamide]	110 nM	20 nM	> 1 nM	2500 nM	290 nM	18 nM	19 nM	270 nM
150 nM	63 nM	3900 nM	1000 nM	7 nM	360 nM	0.3 nM	3 nM	O=C(CCc1cc2c(cc1CN1CCCC1c1nc(C(=O)NCCCCC3CCCCC3)co1)OCO2)NS(=O)(=O)C(F)(F)F (centres unmarked) [Example 12d]	–	–	–	–	–	–	–	–
